According to patent publication US11066396B2 (priority 2016, dated 2021):

Columns and labels:
HDAC1 = HDAC1 (Homo sapiens (Human), UniProt Q13547); conditions: read-out: HDAC1 IC50
HDAC8 = HDAC8 (Homo sapiens (Human), UniProt Q9BY41); conditions: read-out: HDAC8 IC50
Chain of HDAC8 (Q9BY41 whole entry): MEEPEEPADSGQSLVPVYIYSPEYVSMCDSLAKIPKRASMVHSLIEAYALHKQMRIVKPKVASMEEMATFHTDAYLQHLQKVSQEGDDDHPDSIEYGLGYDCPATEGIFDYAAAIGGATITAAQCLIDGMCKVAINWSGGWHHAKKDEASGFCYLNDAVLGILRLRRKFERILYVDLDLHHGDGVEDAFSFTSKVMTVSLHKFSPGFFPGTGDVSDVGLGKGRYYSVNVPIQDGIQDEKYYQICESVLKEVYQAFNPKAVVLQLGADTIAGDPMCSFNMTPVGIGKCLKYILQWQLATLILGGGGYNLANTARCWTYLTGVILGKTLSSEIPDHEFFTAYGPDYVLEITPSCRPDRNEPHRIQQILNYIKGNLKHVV

Chain of HDAC1 (Q13547 whole entry): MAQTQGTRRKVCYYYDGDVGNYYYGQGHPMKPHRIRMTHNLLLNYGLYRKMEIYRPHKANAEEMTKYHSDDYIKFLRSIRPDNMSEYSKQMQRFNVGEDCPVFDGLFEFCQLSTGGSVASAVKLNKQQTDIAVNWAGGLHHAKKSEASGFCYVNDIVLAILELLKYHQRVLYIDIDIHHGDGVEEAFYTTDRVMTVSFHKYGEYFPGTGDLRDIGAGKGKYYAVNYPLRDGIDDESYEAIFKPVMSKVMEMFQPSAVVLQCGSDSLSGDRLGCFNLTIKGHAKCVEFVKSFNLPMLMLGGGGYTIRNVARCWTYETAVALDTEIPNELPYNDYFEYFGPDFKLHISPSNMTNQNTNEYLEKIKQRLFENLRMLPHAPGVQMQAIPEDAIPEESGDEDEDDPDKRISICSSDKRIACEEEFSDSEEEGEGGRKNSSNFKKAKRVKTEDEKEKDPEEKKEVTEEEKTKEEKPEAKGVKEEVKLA

CC1(C)CCCN1C(=O)[C@@H]1CCC(=O)N1c1cc(F)c(-c2noc(C(F)(F)F)n2)cc1F [Example 339, (5S)-1-{2,5-difluoro-4-[5-(trifluoromethyl)-1,2,4-oxadiazol-3-yl]phenyl}-5-[(2,2-dimethylpyrrolidin-1-yl)carbonyl]pyrrolidin-2-one]
IC50 (HDAC1): 13000 nM
IC50 (HDAC8): 45000 nM

O=C([C@@H]1CCC(=O)N1c1cc(F)c(-c2noc(C(F)(F)F)n2)cc1F)N1CCC1 [Example 341, (5S)-5-(azetidin-1-ylcarbonyl)-1-{2,5-difluoro-4-[5-(trifluoromethyl)-1,2,4-oxadiazol-3-yl]phenyl}pyrrolidin-2-one]
IC50 (HDAC1): 41000 nM
IC50 (HDAC8): 26000 nM

CC1(C)CCCN1C(=O)[C@@H]1CCC(=O)N1c1ccc(-c2noc(C(F)(F)F)n2)c(F)c1 [Example 342, (5S)-5-[(2,2-dimethylpyrrolidin-1-yl)carbonyl]-1-{3-fluoro-4-[5-(trifluoromethyl)-1,2,4-oxadiazol-3-yl]phenyl}pyrrolidin-2-one]
IC50 (HDAC1): 45000 nM
IC50 (HDAC8): 25000 nM

Cc1cccc(N2CCC(NCc3ccc(-c4noc(C(F)(F)F)n4)cc3)CC2)c1 [Example 349, 1-(3-methylphenyl)-N-({4-[5-(trifluoromethyl)-1,2,4-oxadiazol-3-yl]phenyl}methyl)piperidin-4-amine]
IC50 (HDAC1): 730 nM
IC50 (HDAC8): 1400 nM

CN1Cc2ccc(NCc3ccc(-c4noc(C(F)(F)F)n4)cn3)cc2C1=O [Example 356, 2-methyl-6-[({5-[5-(trifluoromethyl)-1,2,4-oxadiazol-3-yl]pyridin-2-yl}methyl)amino]-2,3-dihydro-1H-isoindol-1-one]
IC50 (HDAC1): 280 nM
IC50 (HDAC8): 520 nM

FC(F)(F)c1nc(-c2ccc(CNc3ccc4nccn4c3)nc2)no1 [Example 357, N-({5-[5-(trifluoromethyl)-1,2,4-oxadiazol-3-yl]pyridin-2-yl}methyl)imidazo[1,2-a]pyridin-6-amine]
IC50 (HDAC1): 210 nM
IC50 (HDAC8): 960 nM

Cn1ccc(NCc2ccc(-c3noc(C(F)(F)F)n3)cn2)cc1=O [Example 358, 1-methyl-4-[({5-[5-(trifluoromethyl)-1,2,4-oxadiazol-3-yl]pyridin-2-yl}methyl)amino]pyridin-2(1H)-one]
IC50 (HDAC1): 890 nM
IC50 (HDAC8): 2400 nM

Cc1ccc(NCc2ccc(-c3noc(C(F)(F)F)n3)cn2)cn1 [Example 359, 6-methyl-N-({5-[5-(trifluoromethyl)-1,2,4-oxadiazol-3-yl]pyridin-2-yl}methyl)pyridin-3-amine]
IC50 (HDAC1): 430 nM
IC50 (HDAC8): 1800 nM

OCc1cc(NCc2ccc(-c3noc(C(F)(F)F)n3)cn2)ccc1F [Example 361, {2-fluoro-5-[({5-[5-(trifluoromethyl)-1,2,4-oxadiazol-3-yl]pyridin-2-yl}methyl)amino]phenyl}methanol]
IC50 (HDAC1): 520 nM
IC50 (HDAC8): 1600 nM

Cc1ccc(NCc2ccc(-c3noc(C(F)(F)F)n3)cn2)nn1 [Example 362, 6-methyl-N-({5-[5-(trifluoromethyl)-1,2,4-oxadiazol-3-yl]pyridin-2-yl}methyl)pyridazin-3-amine]
IC50 (HDAC1): 1400 nM
IC50 (HDAC8): 2800 nM

COc1ccc(NCc2ccc(-c3noc(C(F)(F)F)n3)cn2)cn1 [Example 363, 6-methoxy-N-({5-[5-(trifluoromethyl)-1,2,4-oxadiazol-3-yl]pyridin-2-yl}methyl)pyridin-3-amine]
IC50 (HDAC1): 520 nM
IC50 (HDAC8): 3400 nM

FC(F)(F)c1nc(-c2ccc(CNc3cc4ccccn4n3)nc2)no1 [Example 365, N-({5-[5-(trifluoromethyl)-1,2,4-oxadiazol-3-yl]pyridin-2-yl}methyl)pyrazolo[1,5-a]pyridin-2-amine]
IC50 (HDAC1): 1200 nM
IC50 (HDAC8): 1800 nM

Cn1ncc(NCc2ccc(-c3noc(C(F)(F)F)n3)cn2)n1 [Example 366, 2-methyl-N-({5-[5-(trifluoromethyl)-1,2,4-oxadiazol-3-yl]pyridin-2-yl}methyl)-2H-1,2,3-triazol-4-amine]
IC50 (HDAC1): 1300 nM
IC50 (HDAC8): 2700 nM

OCc1ccnc(NCc2ccc(-c3noc(C(F)(F)F)n3)cn2)c1 [Example 367, {2-[({5-[5-(trifluoromethyl)-1,2,4-oxadiazol-3-yl]pyridin-2-yl}methyl)amino]pyridin-4-yl}methanol]
IC50 (HDAC1): 820 nM
IC50 (HDAC8): 870 nM

FC(F)(F)c1nc(-c2ccc(CNc3cnccn3)nc2)no1 [Example 368, N-({5-[5-(trifluoromethyl)-1,2,4-oxadiazol-3-yl]pyridin-2-yl}methyl)pyrazin-2-amine]
IC50 (HDAC1): 1000 nM
IC50 (HDAC8): 890 nM

FC(F)(F)c1nc(-c2ccc(CNc3cncnc3)nc2)no1 [Example 369, N-({5-[5-(trifluoromethyl)-1,2,4-oxadiazol-3-yl]pyridin-2-yl}methyl)pyrimidin-5-amine]
IC50 (HDAC1): 930 nM
IC50 (HDAC8): 960 nM

FC(F)(F)c1nc(-c2ccc(CNc3ccc4ccncc4c3)nc2)no1 [Example 370, N-({5-[5-(trifluoromethyl)-1,2,4-oxadiazol-3-yl]pyridin-2-yl}methyl)isoquinolin-7-amine]
IC50 (HDAC1): 68 nM
IC50 (HDAC8): 860 nM

O=C1NC(=O)[C@]2(CC[C@H](NCc3ccc(-c4noc(C(F)(F)F)n4)cn3)CC2)N1 [Example 376, (5s,8s)-8-[({5-[5-(trifluoromethyl)-1,2,4-oxadiazol-3-yl]pyridin-2-yl}methyl)amino]-1,3-diazaspiro[4.5]decane-2,4-dione]
IC50 (HDAC1): 3400 nM
IC50 (HDAC8): 3900 nM

FC(F)(F)c1nc(-c2ccc(CNC3Cc4ccccc4C3)nc2)no1 [Example 378, N-({5-[5-(trifluoromethyl)-1,2,4-oxadiazol-3-yl]pyridin-2-yl}methyl)-2,3-dihydro-1H-inden-2-amine]
IC50 (HDAC1): 630 nM
IC50 (HDAC8): 4200 nM

FC(F)(F)c1nc(-c2ccc(CNC3CCN(c4ccccn4)CC3)nc2)no1 [Example 379, 1-(pyridin-2-yl)-N-({5-[5-(trifluoromethyl)-1,2,4-oxadiazol-3-yl]pyridin-2-yl}methyl)piperidin-4-amine]
IC50 (HDAC1): 1900 nM
IC50 (HDAC8): 7700 nM

Cc1cc(NCc2ccc(-c3noc(C(F)(F)F)n3)cn2)on1 [Example 380, 3-methyl-N-({5-[5-(trifluoromethyl)-1,2,4-oxadiazol-3-yl]pyridin-2-yl}methyl)-1,2-oxazol-5-amine]
IC50 (HDAC1): 930 nM
IC50 (HDAC8): 1400 nM

FC(F)(F)c1nc(-c2ccc(CNc3ccccn3)cc2)no1 [Example 382, N-{4-[5-(trifluoromethyl)-1,2,4-oxadiazol-3-yl]benzyl}pyridin-2-amine]
IC50 (HDAC1): 1600 nM
IC50 (HDAC8): 2100 nM

FC(F)(F)c1nc(-c2ccc(CNc3cccnc3)cc2)no1 [Example 383, N-{4-[5-(trifluoromethyl)-1,2,4-oxadiazol-3-yl]benzyl}pyridin-3-amine]
IC50 (HDAC1): 1700 nM
IC50 (HDAC8): 3100 nM

FC(F)(F)c1nc(-c2ccc(CNc3ncccn3)cc2)no1 [Example 386, N-{4-[5-(trifluoromethyl)-1,2,4-oxadiazol-3-yl]benzyl}pyrimidin-2-amine]
IC50 (HDAC1): 5300 nM
IC50 (HDAC8): 3900 nM

Cn1nccc1CCOc1cc(-c2noc(C(F)(F)F)n2)ccn1 [Example 387, 2-[2-(1-methyl-1H-pyrazol-5-yl)ethoxy]-4-[5-(trifluoromethyl)-1,2,4-oxadiazol-3-yl]pyridine]
IC50 (HDAC1): 3100 nM
IC50 (HDAC8): 880 nM

O=c1ccc2ccc(C(F)(F)F)cc2n1Cc1ccc(-c2noc(C(F)(F)F)n2)cn1 [Example 388, 7-(trifluoromethyl)-1-({5-[5-(trifluoromethyl)-1,2,4-oxadiazol-3-yl]pyridin-2-yl}methyl)quinolin-2(1H)-one]
IC50 (HDAC1): 280 nM
IC50 (HDAC8): 4900 nM

CC(C)(C(=O)N(Cc1ccc(-c2noc(C(F)(F)F)n2)cn1)c1cccc(F)c1)n1cccn1 [Example 391, N-(3-fluorophenyl)-2-methyl-2-(1H-pyrazol-1-yl)-N-({5-[5-(trifluoromethyl)-1,2,4-oxadiazol-3-yl]pyridin-2-yl}methyl)propanamide]
IC50 (HDAC1): 1400 nM
IC50 (HDAC8): 7400 nM

CC(C)(C(=O)N(Cc1ccc(-c2noc(C(F)(F)F)n2)cn1)c1cccc(F)c1)n1cncn1 [Example 392, N-(3-fluorophenyl)-2-methyl-2-(1H-1,2,4-triazol-1-yl)-N-({5-[5-(trifluoromethyl)-1,2,4-oxadiazol-3-yl]pyridin-2-yl}methyl)propanamide]
IC50 (HDAC1): 480 nM
IC50 (HDAC8): 3100 nM

Cc1n[nH]c(CC(=O)N(Cc2ccc(-c3noc(C(F)(F)F)n3)cn2)c2cccc(F)c2)n1 [Example 393, N-(3-fluorophenyl)-2-(3-methyl-1H-1,2,4-triazol-5-yl)-N-({5-[5-(trifluoromethyl)-1,2,4-oxadiazol-3-yl]pyridin-2-yl}methyl)acetamide]
IC50 (HDAC1): 410 nM
IC50 (HDAC8): 3400 nM

Cc1ncc(CC(=O)N(Cc2ccc(-c3noc(C(F)(F)F)n3)cn2)c2cccc(F)c2)s1 [Example 394, N-(3-fluorophenyl)-2-(2-methyl-1,3-thiazol-5-yl)-N-({5-[5-(trifluoromethyl)-1,2,4-oxadiazol-3-yl]pyridin-2-yl}methyl)acetamide]
IC50 (HDAC1): 730 nM
IC50 (HDAC8): 2400 nM

Cc1nnc(CC(=O)N(Cc2ccc(-c3noc(C(F)(F)F)n3)cn2)c2cccc(F)c2)s1 [Example 395, N-(3-fluorophenyl)-2-(5-methyl-1,3,4-thiadiazol-2-yl)-N-({5-[5-(trifluoromethyl)-1,2,4-oxadiazol-3-yl]pyridin-2-yl}methyl)acetamide]
IC50 (HDAC1): 330 nM
IC50 (HDAC8): 1300 nM

Cc1noc(CC(=O)N(Cc2ccc(-c3noc(C(F)(F)F)n3)cn2)c2cccc(F)c2)n1 [Example 396, N-(3-fluorophenyl)-2-(3-methyl-1,2,4-oxadiazol-5-yl)-N-({5-[5-(trifluoromethyl)-1,2,4-oxadiazol-3-yl]pyridin-2-yl}methyl)acetamide]
IC50 (HDAC1): 380 nM
IC50 (HDAC8): 1000 nM

O=C(Cc1[nH]nc2ccccc12)N(Cc1ccc(-c2noc(C(F)(F)F)n2)cn1)c1cccc(F)c1 [Example 397, N-(3-fluorophenyl)-2-(2H-indazol-3-yl)-N-({5-[5-(trifluoromethyl)-1,2,4-oxadiazol-3-yl]pyridin-2-yl}methyl)acetamide]
IC50 (HDAC1): 420 nM
IC50 (HDAC8): 1100 nM
